Reference: the NIST ThermoML archive (doi:10.1016/j.fluid.2019.112283)

Key:
[1] = 298.15 K; 101.33 kPa; Liquid; Vibrating tube method
[2] = excess molar enthalpy (molar enthalpy of mixing); xn = mol fraction of the nth substance listed; conditions: 298.15 K, 101 kPa, Liquid, Flow calorimetry

CCCCN [1-butanamine]
Conditions	mass density [kg/m3]
[1]	732.18

CCCCN [1-butanamine] + CC(=O)N(C)C
[2]
Conditions	excess molar enthalpy [kcal/mol]
x2 = 0.0498	0.0115
x2 = 0.0992	0.0213
x2 = 0.1518	0.0294
x2 = 0.1985	0.0363
x2 = 0.2512	0.0394
x2 = 0.3004	0.0452
x2 = 0.3493	0.0483
x2 = 0.4015	0.0495
x2 = 0.4508	0.05
x2 = 0.5005	0.0497
x2 = 0.5509	0.048
x2 = 0.6005	0.0466
x2 = 0.7008	0.0382
x2 = 0.7995	0.0287
x2 = 0.8502	0.0225
x2 = 0.9002	0.0153
x2 = 0.9594	0.00645

CCCCN [1-butanamine] + CN(C)C=O
[2]
Conditions	excess molar enthalpy [kcal/mol]
x2 = 0.051	0.0213
x2 = 0.1009	0.0397
x2 = 0.1496	0.054
x2 = 0.1703	0.059
x2 = 0.2005	0.0667
x2 = 0.2498	0.0765
x2 = 0.3007	0.0841
x2 = 0.3496	0.0891
x2 = 0.4008	0.0935
x2 = 0.4508	0.0939
x2 = 0.5008	0.0918
x2 = 0.5463	0.0894
x2 = 0.6008	0.0848
x2 = 0.6463	0.0779
x2 = 0.7011	0.0691
x2 = 0.7559	0.0586
x2 = 0.8005	0.0497
x2 = 0.8495	0.0378
x2 = 0.9003	0.0253
x2 = 0.9519	0.0131

CCCCCCN [1-hexanamine]
Conditions	mass density [kg/m3]
[1]	760.16

CCCCCCN [1-hexanamine] + CC(=O)N(C)C
[2]
Conditions	excess molar enthalpy [kcal/mol]
x2 = 0.0509	0.017
x2 = 0.1005	0.0337
x2 = 0.1507	0.0468
x2 = 0.1994	0.0583
x2 = 0.2488	0.0705
x2 = 0.3018	0.0808
x2 = 0.3484	0.0882
x2 = 0.398	0.0961
x2 = 0.4502	0.1
x2 = 0.5006	0.101
x2 = 0.5493	0.101
x2 = 0.6002	0.0994
x2 = 0.6492	0.0958
x2 = 0.7001	0.0896
x2 = 0.7491	0.0815
x2 = 0.7996	0.0707
x2 = 0.8513	0.0569
x2 = 0.9008	0.0409
x2 = 0.9503	0.0217

CCCCCCN [1-hexanamine] + CN(C)C=O
[2]
Conditions	excess molar enthalpy [kcal/mol]
x2 = 0.0514	0.0282
x2 = 0.1007	0.0523
x2 = 0.1516	0.076
x2 = 0.2009	0.0942
x2 = 0.2522	0.11
x2 = 0.3006	0.127
x2 = 0.3519	0.14
x2 = 0.4007	0.148
x2 = 0.4518	0.155
x2 = 0.5003	0.158
x2 = 0.5505	0.158
x2 = 0.5982	0.155
x2 = 0.6507	0.147
x2 = 0.7002	0.136
x2 = 0.7503	0.122
x2 = 0.8005	0.105
x2 = 0.8506	0.0846
x2 = 0.8995	0.0588
x2 = 0.9502	0.0308

CC(=O)N(C)C [N,N-dimethylethanamide]
Conditions	mass density [kg/m3]
[1]	936.14

CCCCNCCCC [dibutylamine]
Conditions	mass density [kg/m3]
[1]	755.7
